Experimental data from patent publication US8343912B2, “Antibiotic compositions for the treatment of gram negative infections” (priority 2008, dated 2013).
Marks after values point to notes of the source that are not given here. Numbered stars: 1 amine (or outer) side, 2 acyl side, 3 side chain; on linkers, the order of the positions; unused ones are H or OH. Bridge positions count the residues as written; N and C are the ends. Square brackets hold non-standard residues; d marks the D form. Peptide text beside a SMILES is read from it. * marks the point of attachment. Octanoyl(6-Me) = CCC(C)CCCCC(=O)*; NH(2-ClPh) = Clc1ccccc1N*; Dab = NCC[CH](N)C(=O)O; CO = O=C([*:1])[*:2]

Tests used:
A. baumannii #1570 = assay: Thigh infection in neutropenic mice; type: in vivo; conditions: for Log10 CFU/mL thigh homogenate ± SD: thighs at 24 h; for ED−3log10 (dose for 3 log10 reduction in bacterial count vs water): thigh infection, sc, Compound 5 value corrected for lot potency 711 μg/mg
Procedure: Infections were induced in neutropenic mice by […] the left thigh of each mouse. Compound 5, or a comparator drug, either polymyxin B, colistin or imipenem, were administered subcutaneously at 1 hour and 6 hours post-infection. Eighteen hours after the last treatment, mice were euthanized humanely; the infected thighs were removed, homogenized, serially diluted, and plated on agar. The bacterial burden was then quantitated by colony count. Compound 5, polymyxin B, colistin, and imipenem were evaluated for their ability to decrease the bacterial burden in the infected thighs compared with water-treated control mice.
All the test compounds were dissolved in sterile water for administration by subcutaneous (sc) injection. A series of dilutions of test compounds were prepared in sterile water.
Mice were made neutropenic by ip administration with 150 mg/kg cyclophosphamide on day-4, followed by a second ip dose of 100 mg/kg cyclophosphamide on day-1. A diluted exponential-phase growing culture of A. baumannii #1570 corresponding to 1×10^7 or 5×10^4 CFU respectively, in 0.2 mL of sterile saline, was injected into the left thigh of conscious mice on day 0. The actual concentration of bacteria in the inoculum was confirmed by determination of viable counts by dilution plating on tryptic soy agar plates. The number of CFU of bacteria was determined after an incubation of 16 hours at 37° C.
Groups of five mice were used for each dose of the test compounds and the vehicle. Each group received sc injections of test compounds or vehicle at 1 hour post-infection, and then at 6 hours post-infection for a total of 2 doses. In each study, there were three to five dose groups per test compound. Eighteen hours after the last injection, the mice were euthanized by asphyxiation with CO2. The left thighs were removed aseptically, homogenized in 4 mL of distilled water and dilution plated on tryptic soy agar plates to quantify bacterial CFU. The number of CFU of bacteria in thighs was determined after an incubation of 16 hours at 37° C. (the CFU per milliliter of homogenate).
The results were expressed as the geometric mean log10 CFU/mL±the standard deviation. The limit of detection was 10 CFU per mL of thigh homogenate. Thighs were considered sterile when no CFU were detected on the agar. The efficacy of the test compounds was assessed by comparing the number of log10 CFU/mL measured in the treated mice with control animals treated with vehicle (water). The efficacy of Compound 5 was also compared with the positive comparator antibiotics polymyxin B, colistin and imipenem-cilastatin.
Dose response curves of test compounds were generated for each isolate. Regression lines were generated using Microsoft Excel to calculate the dose administered twice daily (BID) predicted to produce a 3 log10 reduction in bacterial count as compared to the water-treated control group [ED−3 log 10 (mg/kg, sc, BID)].

P. aeruginosa [1] = assay: MIC, broth microdilution (Table 4); type: cell-based, Pseudomonas aeruginosa; conditions: for MIC P. aeruginosa: Table 4
Procedure: (§1) MIC testing was performed according to Clinical and Laboratory Standards Institute (CLSI) M7-A7 (2006) broth microdilution methods. Unless otherwise indicated, MIC values are provided in units of micrograms per milliliter.
(§2) One day prior to testing, individual colonies were isolated by streaking onto rich, non-selective Tryptic Soy agar with 5% lysed sheeps blood (TSAB) with incubation at 35-37° C. for 18-24 hours.
(§3) Cultures were prepared by touching 3-5 colonies into 3 mL of Cation adjusted Mueller Hinton Broth (caMHB) in a 14 mL tube (CaMHB was prepared and sterilized according to manufacturer's specifications). Cultures were grown at 37° C. 200 rpm for approximately four hours prior to density adjustment for addition to the MIC assay.
(§4) OD600 of growing cultures was measured and adjusted to approximately 10^5 colony forming units per mL (CFU/mL) in caMHB for MIC inoculation (approximately OD600 0.001).
(§5) Diluted cultures were used to inoculate 50 μL per well in broth microdilution assays (final volume 100 μl per well; compounds were prepared in two-fold dilutions).
(§6) Plates were incubated 16-20 hrs at 37° C., with shaking at 200 rpm.
(§7) OD600 was determined for all wells. Growth was defined as OD600>0.1. MICs were defined as the lowest concentration producing no visible turbidity (OD600<0.1).

P. aeruginosa [2] = assay: MIC90, broth microdilution, panel of Gram negative clinical isolates; type: cell-based, Pseudomonas aeruginosa; conditions: 100 strains
Procedure: (§8) To evaluate the potency and spectrum of compounds of Formula (I), (i.e., Compounds designated 5 and 6), a study was conducted that put together a panel of 455 Gram negative strains, which included multi-drug resistant clinical isolates selected from various surveillance programs. Table 3A lists the strains that were included in the study and the activity of Compound 5, Compound 6, and colistin (polymyxin E, abbreviated PME). Strains with acquired resistance to colistin and/or carbapenems and/or broad spectrum cephalosporins were pre-selected and included in all organism groups evaluated.
as §1, §2, §3, §4, §5, §6, §7

E. coli = assay: as above; type: cell-based, Escherichia coli; conditions: 80 strains; some strains multi-drug resistant
Procedure: as §8, §1, §2, §3, §4, §5, §6, §7

S. maltophilia = assay: as above; type: cell-based, Stenotrophomonas maltophilia; conditions: 25 strains
Procedure: as §8, §1, §2, §3, §4, §5, §6, §7

[3] = 2.0 mg/kg BID sc, 1 and 6 h post-infection, water control 7.75

CC(C)C[C@@H]1NC(=O)[C@@H](Cc2ccccc2)NC(=O)[C@H](CCN)NC(=O)[C@@H](NC(=O)[C@H](CCN)NC(=O)[C@@H](NC(=O)[C@H](CCN)NC(=O)Nc2ccccc2Cl)[C@@H](C)O)CCNC(=O)[C@H]([C@@H](C)O)NC(=O)[C@H](CCN)NC(=O)[C@H](CCN)NC1=O [Compound 5, (S)-4-amino-N-((2S,3R)-1-((S)-4-amino-1-oxo-1-((3S,6S,9S,12S,15R,18S,21S)-6,9,18-tris(2-aminoethyl)-15-benzyl-3-((R)-1-hydroxyethyl)-12-isobutyl-2,5,8,11,14,17,20-heptaoxo-1,4,7,10,13,16,19-heptaazacyclotricosan-21-ylamino)butan-2-ylamino)-3-hydroxy-1-oxobutan-2-yl)-2-(3-(2-chlorophenyl)ureido)butanamide] ({NH(2-ClPh)-CO}-[Dab]T[Dab][Dab][Dab][dF]L[Dab][Dab]T; lactam 4-C)
Log10 CFU/mL thigh homogenate ± SD (A. baumannii #1570; [3]): 6.93 ± 0.56 Log10 CFU/mL
Log10 CFU/mL thigh homogenate ± SD (A. baumannii #1570; 4.0 mg/kg BID sc): 6.64 ± 0.55 Log10 CFU/mL
Log10 CFU/mL thigh homogenate ± SD (A. baumannii #1570; 8.0 mg/kg BID sc): 5.06 ± 0.80 Log10 CFU/mL
Log10 CFU/mL thigh homogenate ± SD (A. baumannii #1570; 12.0 mg/kg BID sc): 3.97 ± 0.34 Log10 CFU/mL
ED−3log10 (dose for 3 log10 reduction in bacterial count vs water) (A. baumannii #1570): 6.4^b mg/kg, BID
activity against bacteria compared with polymyxin B (P. aeruginosa [1]): as active or more active
MIC P. aeruginosa (P. aeruginosa [1]): 2 micrograms/ml
fraction unbound (Serum protein binding): ~0.7
MIC90 P. aeruginosa (P. aeruginosa [2]): 2 micrograms/mL
MIC90 E. coli (E. coli): 2 micrograms/mL
MIC90 S. maltophilia (S. maltophilia): >16 micrograms/mL

CCC(C)CCCCC(=O)NC(CCN)C(=O)NC(C(=O)NC(CCN)C(=O)NC1CCNC(=O)C(C(C)O)NC(=O)C(CCN)NC(=O)C(CCN)NC(=O)C(CC(C)C)NC(=O)C(Cc2ccccc2)NC(=O)C(CCN)NC1=O)C(C)O (stereo not drawn) [Polymyxin B, polymyxin B, reference compound] ({Octanoyl(6-Me)}-[Dab]T[Dab][Dab][Dab]FL[Dab][Dab]T; lactam 4-C; configuration not given here)
Log10 CFU/mL thigh homogenate ± SD (A. baumannii #1570; [3]): 6.04 ± 1.10 Log10 CFU/mL
Log10 CFU/mL thigh homogenate ± SD (A. baumannii #1570; 4.0 mg/kg BID sc): 4.94 ± 1.03 Log10 CFU/mL
Log10 CFU/mL thigh homogenate ± SD (A. baumannii #1570; 8.0 mg/kg BID sc): 4.07 ± 0.41 Log10 CFU/mL
Log10 CFU/mL thigh homogenate ± SD (A. baumannii #1570; 12.0 mg/kg BID sc): 4.19 ± 0.59 Log10 CFU/mL
ED−3log10 (dose for 3 log10 reduction in bacterial count vs water) (A. baumannii #1570): 4.8 mg/kg, BID
MIC P. aeruginosa (P. aeruginosa [1]): 2 micrograms/ml
fraction unbound (Serum protein binding): ~0.44
MIC90 P. aeruginosa (P. aeruginosa [2]): 2 micrograms/mL
MIC90 E. coli (E. coli): 2 micrograms/mL
MIC90 S. maltophilia (S. maltophilia): 8 micrograms/mL
